Data: the supplement of paper PMC10307832

Assays:
Assay in all cases: relative viability (nuclei count vs DMSO), 5 days (fraction); higher = more cells survive
[1] = compound: COc1cc2ncn(-c3cc(OCc4ccccc4C(F)(F)F)c(C(N)=O)s3)c2cc1OC + CC(=O)Nc1cccc(-n2c(=O)n(C3CC3)c(=O)c3c(Nc4ccc(I)cc4F)n(C)c(=O)c(C)c32)c1 [Trametinib] (partner 0.02 µM)
Outline: (§1)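 The day after seeding in 1536-well plates, lung cancer cell lines were treated by pin tool with a single drug, or with a fixed anchor-drug dose together with five library-drug doses (not always all listed) in √10 steps. After 5 days, a combined fix-and-stain solution (final 0.05% Triton X-100, 1% formaldehyde, 1 ug/ml Hoechst) was added. Nuclei counted on 4× images gave relative viability as treated counts over vehicle counts, reported as the median of duplicate plates.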

[2] = compound: COc1cc2ncn(-c3cc(OCc4ccccc4C(F)(F)F)c(C(N)=O)s3)c2cc1OC + N=C(N)NC(=N)NCCc1ccccc1 [Phenformin] (partner 250 µM)
Outline: as §1

[3] = compound: COc1cc2ncn(-c3cc(OCc4ccccc4C(F)(F)F)c(C(N)=O)s3)c2cc1OC + COc1cccc2cc(-c3nc([C@H]4CC[C@H](C(=O)O)CC4)n4ncnc(N)c34)[nH]c12 [OSI-027] (partner 0.5 µM)
Outline: as §1

[4] = compound: COc1cc2ncn(-c3cc(OCc4ccccc4C(F)(F)F)c(C(N)=O)s3)c2cc1OC
Outline: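 Five library-drug doses spaced by √10 were pinned onto vehicle-anchored 1536-well plates of lung cancer cell lines that had been kept overnight at 37 °C. Cells went 5 days without medium change, then were fixed, permeabilised and Hoechst-stained together, imaged at 4× and counted by MetaXpress. Viability is the ratio of treated-well to vehicle-well nuclei, taken as a median over plates. Plates required control CV below 25% and at least one doubling.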

Row | Cell Line | relative viability ([1]; first compound 0.05 µM) | relative viability ([1]; first compound 0.1581 µM) | relative viability ([1]; first compound 0.5 µM) | relative viability ([1]; first compound 1.581 µM) | relative viability ([1]; first compound 5 µM) | relative viability ([2]; first compound 0.05 µM) | relative viability ([2]; first compound 0.1581 µM) | relative viability ([2]; first compound 0.5 µM) | relative viability ([2]; first compound 1.581 µM) | relative viability ([2]; first compound 5 µM) | relative viability ([3]; first compound 0.05 µM) | relative viability ([3]; first compound 0.1581 µM) | relative viability ([3]; first compound 0.5 µM) | relative viability ([3]; first compound 1.581 µM) | relative viability ([3]; first compound 5 µM) | relative viability ([4]; 0.05 µM) | relative viability ([4]; 0.1581 µM) | relative viability ([4]; 0.5 µM) | relative viability ([4]; 1.581 µM) | relative viability ([4]; 5 µM)
1 | NCI-H1666 | 0.837 | 0.776 | 0.653 | 0.455 | 0.41 | 0.591 | 0.554 | 0.337 | 0.315 | 0.299 | 0.895 | 0.778 | 0.543 | 0.362 | 0.366 | 0.971 | 0.907 | 0.74 | 0.451 | 0.449
2 | NCI-H1734 | 0.52 | 0.558 | 0.623 | 0.294 | 0.163 | 0.417 | 0.329 | 0.322 | 0.18 | 0.121 | 0.619 | 0.688 | 0.489 | 0.26 | 0.194 | 1.02 | 1.02 | 0.591 | 0.224 | 0.174
3 | NCI-H1755 | 0.83 | 0.673 | 0.734 | 0.519 | 0.316 | 0.572 | 0.622 | 0.531 | 0.319 | 0.243 | 0.785 | 0.688 | 0.467 | 0.314 | 0.266 | 0.965 | 1.02 | 0.96 | 0.475 | 0.371
4 | NCI-H1792 | 0.305 | 0.43 | 0.275 | 0.0525 | 0.0332 | 0.324 | 0.279 | 0.256 | 0.0695 | 0.0567 | 0.815 | 0.661 | 0.315 | 0.269 | 0.251 | 1.11 | 0.894 | 0.403 | 0.16 | 0.103
5 | NCI-H1793 | 0.253 | 0.371 | 0.373 | 0.298 | 0.185 | 0.367 | 0.413 | 0.182 | 0.17 | 0.136 | 0.3 | 0.299 | 0.161 | 0.144 | 0.116 | 1.08 | 1.12 | 0.568 | 0.208 | 0.191
6 | NCI-H1915 | 0.227 | 0.172 | 0.24 | 0.117 | 0.0537 | 0.373 | 0.361 | 0.286 | 0.0964 | 0.0866 | 0.657 | 0.543 | 0.321 | 0.136 | 0.114 | 1.01 | 0.947 | 0.784 | 0.132 | 0.105
7 | NCI-H1944 | 0.413 | 0.42 | 0.337 | 0.189 | 0.123 | 0.211 | 0.234 | 0.174 | 0.106 | 0.0856 | 0.589 | 0.396 | 0.254 | 0.14 | 0.112 | 1.18 | 1.03 | 0.707 | 0.23 | 0.141
8 | NCI-H1975 | 0.369 | 0.192 | 0.182 | 0.135 | 0.155 | 0.44 | 0.392 | 0.229 | 0.162 | 0.113 | 0.66 | 0.547 | 0.328 | 0.109 | 0.1 | 1.09 | 0.902 | 0.643 | 0.226 | 0.17
9 | NCI-H1993 | 0.473 | 0.499 | 0.387 | 0.345 | 0.427 | 0.474 | 0.527 | 0.5 | 0.495 | 0.428 | 0.477 | 0.549 | 0.429 | 0.438 | 0.491 | 1.1 | 0.855 | 0.469 | 0.605 | 0.534
10 | NCI-H2009 | 0.248 | 0.251 | 0.287 | 0.129 | 0.0949 | 0.436 | 0.333 | 0.192 | 0.124 | 0.111 | 0.487 | 0.56 | 0.209 | 0.176 | 0.135 | 0.909 | 0.905 | 0.472 | 0.232 | 0.174
11 | NCI-H2023 | 0.502 | 0.501 | 0.358 | 0.0995 | 0.0739 | 0.328 | 0.395 | 0.229 | 0.0904 | 0.0857 | 0.323 | 0.391 | 0.185 | 0.0955 | 0.0617 | 0.955 | 1.07 | 0.566 | 0.115 | 0.0893
12 | NCI-H2085 | 0.332 | 0.614 | 0.421 | 0.221 | 0.2 | 0.719 | 0.725 | 0.367 | 0.234 | 0.251 | 0.739 | 0.731 | 0.316 | 0.295 | 0.203 | 0.925 | 1.03 | 0.759 | 0.402 | 0.407
13 | NCI-H2087 | 0.239 | 0.196 | 0.143 | 0.0778 | 0.111 | 0.51 | 0.458 | 0.269 | 0.111 | 0.107 | 0.747 | 0.471 | 0.181 | 0.101 | 0.0877 | 1.08 | 0.923 | 0.628 | 0.135 | 0.124
14 | NCI-H2126 | 0.535 | 0.582 | 0.478 | 0.27 | 0.205 | 0.481 | 0.579 | 0.367 | 0.265 | 0.261 | 0.715 | 0.771 | 0.604 | 0.289 | 0.22 | 1.02 | 1 | 0.754 | 0.329 | 0.236
15 | NCI-H2170 | 0.96 | 0.885 | 0.246 | 0.159 | 0.153 | 0.444 | 0.351 | 0.32 | 0.195 | 0.179 | 0.703 | 0.667 | 0.365 | 0.173 | 0.183 | 1.01 | 0.907 | 0.473 | 0.202 | 0.197
16 | NCI-H2228 | 0.409 | 0.268 | 0.188 | 0.116 | 0.136 | 0.305 | 0.337 | 0.155 | 0.121 | 0.144 | 0.662 | 0.558 | 0.192 | 0.134 | 0.179 | 1.01 | 0.853 | 0.417 | 0.166 | 0.188
